Numbers after ± are expanded uncertainties.
Conditions: Liquid, Ebulliometric method (Recirculating still)

CCCC(=O)CCC [4-heptanone]
Conditions | vapor or sublimation pressure [kPa]
358.74 K | 14.54 ± 0.74
363.42 K | 17.72 ± 0.74
370.01 K | 22.69 ± 0.75
377.77 K | 29.93 ± 0.76
383.7 K | 36.63 ± 0.78
385.47 K | 40 ± 0.9
385.5 K | 40 ± 0.9
385.87 K | 40 ± 0.9
388.63 K | 43.17 ± 0.8
393.78 K | 50.95 ± 0.83
398.38 K | 59.15 ± 0.85
403.74 K | 69.39 ± 0.88
407.98 K | 78.55 ± 0.91
411.2 K | 86.2 ± 0.94
413.43 K | 91.55 ± 0.94

CCCCCC(C)=O [2-heptanone]
Conditions | vapor or sublimation pressure [kPa]
354.77 K | 9.87 ± 0.73
358.59 K | 11.52 ± 0.73
365.38 K | 15.05 ± 0.73
367.88 K | 16.52 ± 0.74
368.9 K | 17.34 ± 0.75
373.79 K | 20.76 ± 0.74
373.84 K | 20.76 ± 0.74
379.25 K | 25.32 ± 0.75
379.3 K | 25.32 ± 0.75
383.78 K | 29.69 ± 0.76
383.83 K | 29.69 ± 0.76
388.51 K | 34.81 ± 0.77
392.54 K | 40 ± 0.88
393.11 K | 40.52 ± 0.79
398.45 K | 48.09 ± 0.81
403.15 K | 55.74 ± 0.83
405.81 K | 60.35 ± 0.84
409.67 K | 67.5 ± 0.86
413.3 K | 75.05 ± 0.9
416.77 K | 83.2 ± 0.92
420.2 K | 91.5 ± 0.93

CCCCC(=O)CC [3-heptanone]
Conditions | vapor or sublimation pressure [kPa]
354.82 K | 11.05 ± 0.73
358.58 K | 12.93 ± 0.73
363.03 K | 15.51 ± 0.74
367.95 K | 18.75 ± 0.74
373.6 K | 23.27 ± 0.75
377.99 K | 27.11 ± 0.76
383.09 K | 32.58 ± 0.77
388.11 K | 40 ± 0.9
388.36 K | 40 ± 0.9
388.62 K | 39.13 ± 0.78
388.67 K | 40 ± 0.9
393.02 K | 45.12 ± 0.81
398.84 K | 54.02 ± 0.83
404.44 K | 64.03 ± 0.86
409.63 K | 74.5 ± 0.89
412.95 K | 82 ± 0.93
416.5 K | 90.5 ± 0.94

CCCCCCCC [octane]
Conditions | vapor or sublimation pressure [kPa]
367.97 K | 40 ± 0.88
368.3 K | 40 ± 0.88
368.32 K | 40 ± 0.88

CCO [ethanol]
Conditions | vapor or sublimation pressure [kPa]
351.14 K | 101.3 ± 1.5

CCCCCCCCC [nonane]
Conditions | vapor or sublimation pressure [kPa]
391.78 K | 40 ± 0.88
391.87 K | 40 ± 0.88
391.9 K | 40 ± 0.88

CCCCO [butan-1-ol]
Conditions | vapor or sublimation pressure [kPa]
390.49 K | 101.3 ± 1.5

CCCCCCCCCC [decane]
Conditions | vapor or sublimation pressure [kPa]
413.88 K | 40 ± 0.88

Reference: the NIST ThermoML archive (doi:10.1021/je500731x)
